The source of these data is publication PMC5399052, “Integrating in vitro data and physiologically based kinetic (PBK) modelling to assess the in vivo potential developmental toxicity of a series of phenols” (Archives of Toxicology, 2016).

For orientation: NOAEL means the highest dose or exposure tested at which no adverse effect was seen. The term Km denotes the substrate concentration at which the rate is half of its maximum.

Read-outs that look alike come from different tables or passages of the source. Marks after values point to notes of the source that are not given here.

A short description of data set [1]: In vivo developmental toxicity study, rats exposed at GD11. Particulars: female, rat. An excerpt:
The BMDL05 values of the in vivo study were derived using the BMDS version 2.6.

The subject of a further data set is Balb/c 3T3 clone A31. Particulars: BSA levels reflecting in vitro and in vivo situation. The protocol: In vitro concentration–response data obtained with the EST were translated to in vivo dose–response values by applying PBK-based reverse modelling, performed as described by Strikwold et al. ([2013]) with some modifications. […] In vivo albumin and fat levels that are used in the extrapolation rules were adjusted to values that correspond to embryos/foetuses during mid-/late gestation. […] The vitro lipid fraction and albumin levels resembling the situation in the EST were 0.04% and 4.8 mg/ml, respectively (Verwei et al. [2006]).

For data set [2] the following is noted: rat, ref Humphrey et al. [1980], cited from earlier work.
The next data set concerns rat liver microsomes. Particulars: cited from earlier work.
A further data set is described as follows: in vitro. Particulars: rat, pH 7.4. The protocol:
The formation of glucuronide metabolites of the p-substituted phenols was investigated in incubations with rat liver microsomes. […] To obtain maximum glucuronidation activity, the microsomes were activated by preincubating the incubation mixture with 0.025 mg/ml alamethicin added from a 200 times concentrated stock solution in methanol, during 15 min on ice (Fisher et al. [2000]). Subsequently, the incubations were started after a 1-min preincubation at 37 °C by addition of the substrate from a 200 times concentrated stock solution in DMSO and incubated in a shaking water bath at 37 °C for 45 min. The reactions were terminated by addition of ice-cold acetonitrile (20% v/v). In the blank incubation mixtures, UDPGA was omitted. Samples were analysed by UPLC–PDA (see “Quantification of analytes” section). No reference standards of the glucuronide metabolites were commercially available. […] At first, retention times from the UPLC–PDA chromatograms of the parent compound of the blank incubation were compared with the retention times of newly appearing peaks in chromatograms of the incubation mixtures, as the glucuronide conjugates are expected to elute earlier compared with their parent compounds due do their increased hydrophilicity. […] For this purpose, a volume of 10 µl of the incubation mixture of the glucuronidation assay (that was not terminated by the addition of ice-cold acetonitrile) was added to 90 µl of 200 mM potassium phosphate (pH 6.2). Then, 4 µl of glucuronidase (200 units/ml) was added, and the mixtures were incubated for 60 min in a shaking water bath at 37 °C. The reactions were terminated by addition of ice-cold acetonitrile (20% v/v) and were put on ice. Control samples were treated under the same conditions, but without glucuronidase.
The conditions of the incubation assays were optimised to obtain linear reaction rates with respect to incubation time and protein concentration and non-limiting cofactor levels were applied. […] To obtain maximum glucuronidation activity, the microsomes were activated by preincubating the incubation mixture with 0.025 mg/ml alamethicin added from a 200 times concentrated stock solution in methanol, during 15 min on ice (Fisher et al. [2000]).
Kinetic constants for the glucuronidation of the p-substituted phenols were derived by fitting the data to the standard Michaelis–Menten equation; v=Vmax∗S/Km+[S] in which [S] represents the substrate concentration, V max the maximum velocity and K m the Michaelis–Menten constant for the formation of the glucuronide metabolites. Data analysis was accomplished using GraphPad Prism 5.0 software (GraphPad, San Diego, CA, USA). […] The in vivo K m value was assumed to be the same to the in vitro K m value.
Samples from the BeWo and Caco-2 transport experiments were centrifuged at 13,000 rpm at 5 °C for 15 min. Next 7.5 µl of the supernatant of each sample was analysed by UPLC (Waters Acquity). Samples from the glucuronidation assays were centrifuged at 15,000 rpm at 5 °C for 5 min. […] All samples, except those from transport studies with fluorescein, were analysed on a Waters BEH C18 1.7 µm column, 2.1 × 50 mm, with nanopure water (0.1% TFA) (A) and pure acetonitrile (B) applying a gradient elution. The start condition was 100:0 (A:B), changing to 90:10 from 1 to 2 min, then to 10:90 from 2 to 4 min (or from 2 to 3 min when analysing samples for p-heptyloxyphenylglucuronide), remaining at this ratio for 0.5 min and then rapidly declining to the start condition. The flow rate was 0.6 ml/min.

For a further data set, the system named is ES-D3 cells. To be noted: ref Strikwold et al. [2012]; cited from earlier work.

In data set [1], `Oc1ccccc1` [Phenol] returned a no-observed-adverse-effect level (NOAEL) of 333 mg/kg. Besides, in the data set on Balb/c 3T3 clone A31, the “Effect of bovine serum albumin level on in vitro cytotoxicity” value is recorded as “not affected”. The “ka, uptake rate from in situ intestinal perfusion” value in data set [2] was 7.62^b /h; in data set [2] (listed as phenol), 7.62 h⁻¹. The Michaelis-Menten constant (Km) with rat liver microsomes (read-out: Km(app) glucuronidation (± SD), ref Strikwold et al. [2013]) is 465 ± 66 µM. Besides, the “Vmax(app) glucuronidation (± SD)” value with rat liver microsomes (ref Strikwold et al. [2013]) was 90 ± 4 nmol/min/mg microsomal protein.
For the compound `Oc1ccc(F)cc1` [p-Fluorophenol, p-fluorophenol], in “in vitro”, the Km at 10 min worked out at 314 ± 16 µM. In addition, the “Potency ratio / difference in BMC50 (phenol / p-substituted phenol) in the EST” value with ES-D3 cells is reported as 1.9 fold.
